For 14 compounds, Ki results are on record in BindingDB's records for doi:10.1021/jm031026e (Universit&#224, 2004).

This test concerns the target Sigma non-opioid intracellular receptor 1 (Cavia porcellus) (UniProt Q60492). As to the kind of experiment: In vitro binding affinity at opioid sigma-1 receptor in guinea pig brain membranes by (+)-[3H]pentazocine displacement.

A word on the Ki: it is the dissociation constant of the complex between target and ligand, obtained from inhibition or displacement. A lower Ki goes with a stronger hold on the target.

Sequence of Sigma non-opioid intracellular receptor 1 (Cavia porcellus) (Q60492 whole entry, looked up): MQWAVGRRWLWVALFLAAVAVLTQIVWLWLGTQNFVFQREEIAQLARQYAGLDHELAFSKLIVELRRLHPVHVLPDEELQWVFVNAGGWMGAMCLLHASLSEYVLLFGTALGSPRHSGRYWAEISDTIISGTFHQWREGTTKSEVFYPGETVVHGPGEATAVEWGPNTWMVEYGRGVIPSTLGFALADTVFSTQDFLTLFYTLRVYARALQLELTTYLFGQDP

For `c1ccc2c(CCCN3CCN(C4CCCCC4)CC3)cccc2c1` [1-Cyclohexyl-4-(3-naphthalen-1-yl-propyl)-piperazine], the Ki came to 2.16 nM.

Compound `c1ccc2c(CCCCN3CCN(C4CCCCC4)CC3)cccc2c1` [1-Cyclohexyl-4-(4-naphthalen-1-yl-butyl)-piperazine] showed a Ki of 0.22 nM. Compared with the last compound, the Ki is about 9.8-fold lower.

Take `COc1cccc2c1CCCC2N1CCN(C2CCCCC2)CC1` (centres undefined) [1-Cyclohexyl-4-(5-methoxy-1,2,3,4-tetrahydro-naphthalen-1-yl)-piperazine]: affinity was put at a Ki of 0.4 nM.

In turn, `COc1cccc2c1CCCC2CN1CCN(C2CCCCC2)CC1` (centres undefined) [1-Cyclohexyl-4-(5-methoxy-1,2,3,4-tetrahydro-naphthalen-1-ylmethyl)-piperazine] returned a Ki of 0.31 nM.

Consider `c1ccc2c(CCCCCN3CCN(C4CCCCC4)CC3)cccc2c1` [1-Cyclohexyl-4-(5-naphthalen-1-yl-pentyl)-piperazine], for which the affinity corresponds to a Ki of 2.4 nM.

`COc1cccc2c1CCCC2CCN1CCN(C2CCCCC2)CC1` (centres undefined) [1-Cyclohexyl-4-[2-(5-methoxy-1,2,3,4-tetrahydro-naphthalen-1-yl)-ethyl]-piperazine] registered a Ki of 1.57 nM.

In the case of `c1ccc2c(c1)CCCC2CCCN1CCN(C2CCCCC2)CC1` (centres undefined) [1-Cyclohexyl-4-[3-(1,2,3,4-tetrahydro-naphthalen-1-yl)-propyl]-piperazine], the Ki was determined as 0.61 nM.

In the case of `COc1ccc2c(c1)CCCC2CCCN1CCN(C2CCCCC2)CC1` (centres undefined) [1-Cyclohexyl-4-[3-(6-methoxy-1,2,3,4-tetrahydro-naphthalen-1-yl)-propyl]-piperazine], the Ki came out at 0.36 nM.

`COc1ccc2c(c1)C(CCCN1CCN(C3CCCCC3)CC1)CCC2` (centres undefined) [1-Cyclohexyl-4-[3-(7-methoxy-1,2,3,4-tetrahydro-naphthalen-1-yl)-propyl]-piperazine]: the Ki amounted to 9.04 nM.

Regarding `c1ccc2c(c1)CCCC2CCCCCN1CCN(C2CCCCC2)CC1` (centres undefined) [1-Cyclohexyl-4-[5-(1,2,3,4-tetrahydro-naphthalen-1-yl)-pentyl]-piperazine], affinity was put at a Ki of 1.45 nM.

Consider `COc1cccc2c1CCCC2CCCCCN1CCN(C2CCCCC2)CC1` (centres undefined) [1-Cyclohexyl-4-[5-(5-methoxy-1,2,3,4-tetrahydro-naphthalen-1-yl)-pentyl]-piperazine], for which the Ki amounted to 1.52 nM. This Ki and that of the compound before are within 1.5-fold of each other.

As for `COc1cccc2c1CCCC2CCCCCCN1CCN(C2CCCCC2)CC1` (centres undefined) [1-Cyclohexyl-4-[6-(5-methoxy-1,2,3,4-tetrahydro-naphthalen-1-yl)-hexyl]-piperazine], the Ki is 3.07 nM.

`Oc1ccc2c(c1)CCCC2CCCN1CCN(C2CCCCC2)CC1` (centres undefined) [5-[3-(4-Cyclohexyl-piperazin-1-yl)-propyl]-5,6,7,8-tetrahydro-naphthalen-2-ol] had a Ki of 0.69 nM.

Consider `c1ccc(CCN2CCCCC2)cc1` [N-phenethylpiperidine], for which the Ki is 309 nM.
